Laboratory results from PMC6032158, “Structure–Activity Relationship of Piplartine and Synthetic Analogues against Schistosoma mansoni and Cytotoxicity to Mammalian Cells” (International Journal of Molecular Sciences, 2018).

System: 49-day-old S. mansoni adult worms
Test: In vitro experiments with adult worms of S. mansoni (mortality, motor activity)
Format: cell-based, Schistosoma mansoni
Settings: 2 µM, male worms
Method: The Belo Horizonte (BH) strain of S. mansoni was maintained in Biomphalaria glabrata snails and Mesocricetus auratus hamsters at the Adolfo Lutz Institute (São Paulo, Brazil) according to standard procedures. Detailed methods for the infection of molluscs and hamsters, as well as for the recovery of parasites, were as described previously. Briefly, the intermediate host snails were exposed to light for approximately 3 h and cercariae of S. mansoni were subsequently harvested. […] All animals were handled in strict accordance with good animal practice as defined by the Animal Use Ethics Committee. The preparations and culture of schistosomes was performed as previously described. Briefly, hamsters were killed 49 days after infection for the recovery of adult schistosomes. Next, fresh adult worm pairs (male and female) were washed and placed in a 24-well culture plate (TPP, St. […] Adult schistosomes were maintained continuously in medium (with or without drugs) for 96 h as described below. In vitro assays in S. mansoni adults were performed with mated males and females. The worm pairs obtained from the infusion hamsters were washed twice with RPMI 1640 medium containing 200 U/mL penicillin, 200 μg/mL streptomycin and 2 μg/mL amphotericin B (Vitrocell, Campinas, Brazil). The mated parasites were then transferred into 24-well cell culture plates (TPP, St. […] Cultures of adult worms were monitored by microscopy or magnifying glass. The effect of the drug was assessed with emphasis on changes in worm motor activity and death of worms as previously described.

O=C(C1CCCCC1)N1CC(=O)N2CCc3ccccc3C2C1 (stereo not drawn) [Praziquantel, praziquantel, reference compound]
Dead Worms (%) M (24 h): 100% | Motor Activity Reduction (%) Significant M (24 h): 100% | Motor Activity Reduction (%) Slight M (24 h): 0% | Dead Worms (%) M (48 h): 100% | Motor Activity Reduction (%) Significant M (48 h): 100% | Motor Activity Reduction (%) Slight M (48 h): 0% | Dead Worms (%) M (72 h): 100% | Motor Activity Reduction (%) Significant M (72 h): 100% | Motor Activity Reduction (%) Slight M (72 h): 0% | Dead Worms (%) M (96 h): 100% | Motor Activity Reduction (%) Significant M (96 h): 100% | Motor Activity Reduction (%) Slight M (96 h): 0%
